{"source": "patent US20240058387A1", "about": "“CULTURE MEDIUM COMPOSITION FOR AMPLIFYING AND MAINTAINING SELF-RENEWAL CAPACITY AND DIFFERENTIATION POTENTIAL OF HSCS AND APPLICATION THEREOF” (EDIGENE (GUANGZHOU) INC., priority 2020, published 2024)", "system": "mobilized peripheral blood-derived CD34+ cells", "test": "Cell counting: absolute number of marker-positive cells, comparison with UM171 and SR1", "type": "cell-based, human", "conditions": "FIG. 5B; 8 days; AG1296 at 1 μM; UM171 concentration not given", "procedure": "According to the solubility and required solvent indicated in the instructions of the small molecule inhibitor (see Table 1 for the Cat. number of the small molecule inhibitor), the preparation of the small molecule inhibitor stock solution was carried out. Next, the hematopoietic stem cell medium was prepared: SFEM II medium (stem cell, Cat. number: 09655)+50 ng/ml growth factor Flt-3L (PeProtech, Cat. number: 300-100UG)+50 ng/ml growth factor SCF (PeProtech, Cat. number): 300-07-100UG)+50 ng/ml growth factor TPO (PeProtech, Cat. number: 300-18-100UG)+10 ng/ml interleukin IL-6 (PeProtech, Cat. number: 200-06-20UG)+1% bispecific antibody (HyClone, Cat. No.: sv30010). According to the set concentration gradient of the small molecule inhibitor, the stock solution and the basal medium were used to prepare the medium containing different concentrations of the small molecule inhibitor.\nFirst, the prepared medium was added to a 24-well plate (Corning, Cat. number: 3473), 950 μl per well, and placing it in a carbon dioxide incubator (Thermo, model: 3111) to preheat; resuspending the spare umbilical cord Blood-derived HSCs of Example 1 with SFEM 11+50 ng/ml Flt-3L+50 ng/ml SCF+50 ng/ml TPO+10 ng/ml IL-6+1% bispecific antibody, calculating the medium volume to be added according to 50 μl cell suspension per well and 2*10^5/m1 cell density per well. For example, when the final volume of the cell culture solution per well was 1 ml, the total number of cells per well was 2*10^5 cells calculated according to the cell density per well, and the density of the […] of cell suspension supplemented to each well is 4*10^6/ml. The density of the spare HSCs of Example 1 was adjusted to the calculated density of the cell suspension, and adding it; taking out the preheated medium from the incubator, adding 50 μl of the cell suspension to each well, and after mixing, using the microscope (OLYMPUS, model: CKX53) to observe the cells state, and then putting it into an incubator for culturing.\nOn the mobilized peripheral blood-derived CD34+ cells sorted in Example 1, the screened-out inhibitor AG1296 and literature-reported (Fares I, et al. Science. 2014; Boitano A E, et al. Science. 2010) inhibitors UM171 and SR1 were compared in the same way as Example 2. Eight days after the induction of the small molecule inhibitor, the expression of LT-HSCs cell surface markers (CD34+CD45+CD90+CD45RA−CD38−) was detected by flow cytometry using the same method as in Example 3. After 8 days of culture, 20 μL of cell suspension was taken into a cell counter (Nexcelom, model: Cellometer K2) and counted, and the absolute numbers of the final CD34+ cells and LT-HSCs on […] were calculated (absolute number of cells=total number of cells*stemness ratio).", "data": [{"smiles": "Cn1nnc(-c2ccc3c(c2)[nH]c2nc(Cc4ccccc4)nc(NC4CCC(N)CC4)c23)n1", "note": "(stereo not shown) [UM171]", "values": [{"measurement": "absolute number of CD34+ cells", "result": "best effect"}]}]}
